# In ChEMBL document CHEMBL1201862, “PubChem BioAssay data set” (2004):
#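 A five-concentration, 48-hour dose response in 96-well plates underlies each endpoint, interpolated linearly between surrounding concentrations. GI50 = concentration required for 50% inhibition of growth.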 The source made the active and inactive calls. No stated cut-off is given here; in the data, active = GI50 up to about 1.1 µM and inactive = higher.
# Experiments:
# Assay in all cases: DTP human tumour cell line panel, 48 h
# A498 = test system: A498
# UACC-62 = test system: UACC-62
# EKVX = test system: EKVX
# SW-620 = test system: SW-620
# T47D = test system: T47D
# HOP-92 = test system: HOP-92
# SK-MEL-2 = test system: SK-MEL-2
# COLO 205 = test system: COLO 205
# RXF 393 = test system: RXF 393
# HCT-116 = test system: HCT-116
# HT-29 = test system: HT-29
# SNB-19 = test system: SNB-19
# NCI-H23 = test system: NCI-H23
# PC-3 = test system: PC-3
# HL-60 = test system: HL-60
# NCI-H460 = test system: NCI-H460
# SF-268 = test system: SF-268
# OVCAR-8 = test system: OVCAR-8
# SN12C = test system: SN12C
# SK-OV-3 = test system: SK-OV-3
# NCI-H226 = test system: NCI-H226
# DU-145 = test system: DU-145
# MDA-MB-231 = test system: MDA-MB-231
# BT-549 = test system: BT-549
# M14 = test system: M14
# A549 = test system: A549
# OVCAR-3 = test system: OVCAR-3
# NCI-H522 = test system: NCI-H522
# SNB-75 = test system: SNB-75
# HCT-15 = test system: HCT-15
# IGROV-1 = test system: IGROV-1
# SF-295 = test system: SF-295
# SR = test system: SR
# MDA-N = test system: MDA-N
# NCI/ADR-RES = test system: NCI/ADR-RES
# LOX IMVI = test system: LOX IMVI
# HOP-62 = test system: HOP-62
# SF-539 = test system: SF-539
# CAKI-1 = test system: CAKI-1
# SK-MEL-5 = test system: SK-MEL-5
# MOLT-4 = test system: MOLT-4
# Malme-3M = test system: Malme-3M
# MDA-MB-435 = test system: MDA-MB-435
# RPMI-8226 = test system: RPMI-8226
# UACC-257 = test system: UACC-257
# OVCAR-5 = test system: OVCAR-5
# OVCAR-4 = test system: OVCAR-4
# Hs-578T = test system: Hs-578T
# ACHN = test system: ACHN
# TK-10 = test system: TK-10
# U-251 = test system: U-251
# K562 = test system: K562
# MCF7 = test system: MCF7
# 786-0 = test system: 786-0
# CCRF-CEM = test system: CCRF-CEM
# KM12 = test system: KM12
# SK-MEL-28 = test system: SK-MEL-28
# UO-31 = test system: UO-31
compound,measurement,setting,value
CCON=C1C(C)(C)C(C)(C)C(C)(C)C1(C)C,GI50,A498,> 100 µM (inactive)
same,GI50,UACC-62,> 100 µM (inactive)
same,GI50,EKVX,> 100 µM (inactive)
same,GI50,SW-620,> 100 µM (inactive)
same,GI50,T47D,> 100 µM (inactive)
same,GI50,HOP-92,> 100 µM (inactive)
same,GI50,SK-MEL-2,> 100 µM (inactive)
same,GI50,COLO 205,> 100 µM (inactive)
same,GI50,RXF 393,> 100 µM (inactive)
same,GI50,HCT-116,> 100 µM (inactive)
same,GI50,HT-29,> 100 µM (inactive)
same,GI50,SNB-19,> 100 µM (inactive)
same,GI50,NCI-H23,> 100 µM (inactive)
same,GI50,PC-3,> 100 µM (inactive)
same,GI50,HL-60,> 100 µM (inactive)
same,GI50,NCI-H460,> 100 µM (inactive)
same,GI50,SF-268,> 100 µM (inactive)
same,GI50,OVCAR-8,> 100 µM (inactive)
same,GI50,SN12C,> 100 µM (inactive)
same,GI50,SK-OV-3,> 100 µM (inactive)
same,GI50,NCI-H226,> 100 µM (inactive)
same,GI50,DU-145,> 100 µM (inactive)
same,GI50,MDA-MB-231,> 100 µM (inactive)
same,GI50,BT-549,> 100 µM (inactive)
same,GI50,M14,> 100 µM (inactive)
same,GI50,A549,> 100 µM (inactive)
same,GI50,OVCAR-3,> 100 µM (inactive)
same,GI50,NCI-H522,> 100 µM (inactive)
same,GI50,SNB-75,> 100 µM (inactive)
same,GI50,HCT-15,> 100 µM
same,GI50,IGROV-1,> 100 µM (inactive)
same,GI50,SF-295,> 100 µM (inactive)
same,GI50,SR,> 100 µM (inactive)
same,GI50,MDA-N,> 100 µM (inactive)
same,GI50,NCI/ADR-RES,> 100 µM (inactive)
same,GI50,LOX IMVI,> 100 µM (inactive)
same,GI50,HOP-62,> 100 µM (inactive)
same,GI50,SF-539,> 100 µM (inactive)
same,GI50,CAKI-1,> 100 µM (inactive)
same,GI50,SK-MEL-5,> 100 µM (inactive)
same,GI50,MOLT-4,> 100 µM (inactive)
same,GI50,Malme-3M,> 100 µM (inactive)
same,GI50,MDA-MB-435,> 100 µM (inactive)
same,GI50,RPMI-8226,> 100 µM (inactive)
same,GI50,UACC-257,> 100 µM (inactive)
same,GI50,OVCAR-5,> 100 µM (inactive)
same,GI50,OVCAR-4,> 100 µM (inactive)
same,GI50,Hs-578T,> 100 µM (inactive)
same,GI50,ACHN,> 100 µM (inactive)
same,GI50,TK-10,> 100 µM (inactive)
same,GI50,U-251,> 100 µM (inactive)
same,GI50,K562,> 100 µM (inactive)
same,GI50,MCF7,> 100 µM (inactive)
same,GI50,786-0,> 100 µM (inactive)
same,GI50,CCRF-CEM,> 100 µM (inactive)
same,GI50,KM12,> 100 µM (inactive)
same,GI50,SK-MEL-28,> 100 µM (inactive)
C[C@H]1S[C@@H](c2ccc(Cl)cc2Cl)N(NC(=O)c2ccncc2)C1=O,GI50,A498,> 100 µM (inactive)
same,GI50,UACC-62,29.6 µM (inactive)
same,GI50,T47D,33 µM (inactive)
same,GI50,HOP-92,60.5 µM (inactive)
same,GI50,SK-MEL-2,27.3 µM (inactive)
same,GI50,COLO 205,70.6 µM (inactive)
same,GI50,RXF 393,25.4 µM (inactive)
same,GI50,HCT-116,34.5 µM (inactive)
same,GI50,HT-29,> 100 µM (inactive)
same,GI50,SNB-19,62.4 µM (inactive)
same,GI50,NCI-H23,50.4 µM (inactive)
same,GI50,PC-3,33 µM (inactive)
same,GI50,HL-60,98.4 µM (inactive)
same,GI50,NCI-H460,58.2 µM (inactive)
same,GI50,OVCAR-8,> 100 µM (inactive)
same,GI50,SN12C,71.3 µM (inactive)
same,GI50,SK-OV-3,> 100 µM (inactive)
same,GI50,NCI-H226,41.6 µM (inactive)
same,GI50,DU-145,71.3 µM (inactive)
same,GI50,MDA-MB-231,49.2 µM (inactive)
same,GI50,BT-549,39.4 µM (inactive)
same,GI50,M14,61.8 µM (inactive)
same,GI50,OVCAR-3,35.6 µM (inactive)
same,GI50,NCI-H522,37.8 µM (inactive)
same,GI50,SNB-75,80.5 µM (inactive)
same,GI50,HCT-15,47.9 µM
same,GI50,IGROV-1,> 100 µM (inactive)
same,GI50,SR,79.4 µM (inactive)
same,GI50,MDA-N,> 10 µM (inactive)
same,GI50,NCI/ADR-RES,21.7 µM (inactive)
same,GI50,HOP-62,> 100 µM (inactive)
same,GI50,CAKI-1,56.2 µM (inactive)
same,GI50,SK-MEL-5,44.8 µM (inactive)
same,GI50,UO-31,37 µM (inactive)
same,GI50,MOLT-4,18.4 µM (inactive)
same,GI50,Malme-3M,> 100 µM (inactive)
same,GI50,MDA-MB-435,43.6 µM (inactive)
same,GI50,RPMI-8226,40.2 µM (inactive)
same,GI50,OVCAR-5,95.9 µM (inactive)
same,GI50,OVCAR-4,> 100 µM (inactive)
same,GI50,Hs-578T,94.2 µM (inactive)
same,GI50,U-251,64 µM (inactive)
same,GI50,K562,28.1 µM (inactive)
same,GI50,MCF7,45 µM (inactive)
same,GI50,CCRF-CEM,11.3 µM (inactive)
same,GI50,KM12,> 100 µM (inactive)
same,GI50,SK-MEL-28,45.2 µM (inactive)
